Series [1] in a line: Moisture balance (moisture sorption/desorption, 5% to 95% RH) with post-MB XRPD. The format is physicochemical. On the procedure:
In addition to XRPD, quinine sulfate polymorph A is analyzed by DSC, TGA, moisture balance (MB), post-MB XRPD, hotstage microscopy (HSM), Karl Fischer (KF) and variable temperature X-ray powder diffraction (VT-XRPD); a summary of the analyses is provided in Table 11b. Moisture sorption/desorption data are collected on a VTI SGA-100 Vapor Sorption Analyzer. Sorption and desorption data are collected over a range of 5% to 95% relative humidity (RH) at 10% RH intervals. Samples are not dried prior to analysis. Equilibrium criteria used for analysis are less than 0.0100% weight change in 5 minutes, with a maximum equilibration time of 3 hours if the weight criterion is not met. Data are not corrected for the initial moisture content of the samples. Sodium chloride and polyvinylpyrrolidone are used as calibration standards.

Series [2] in a line: Variable-temperature XRPD (solid form on heating). The format is physicochemical. The procedure: In addition to XRPD, quinine sulfate polymorph A is analyzed by DSC, TGA, moisture balance (MB), post-MB XRPD, hotstage microscopy (HSM), Karl Fischer (KF) and variable temperature X-ray powder diffraction (VT-XRPD); a summary of the analyses is provided in Table 11b. Variable-temperature XRPD is performed on a Shimadzu XRD-6000 X-ray powder diffractometer equipped with an Anton Paar HTK 1200 high temperature stage. The sample is packed in a ceramic holder and analyzed from 2.5 to 40 °2θ at 3°/min (0.4 sec/0.02° step). A silicon standard is analyzed to check the instrument alignment. Temperature calibration is performed using vanillin and sulfapyridine standards. Data are collected and analyzed using XRD-6000 v. 4.1.

Where a name gives a salt, the structure may show the parent alone.

For the compound `C=C[C@H]1C[N@@]2CC[C@H]1C[C@H]2[C@H](O)c1ccnc2ccc(OC)cc12` [Form A, quinine sulfate], the “post-MB XRPD form” value in series [1] (solid form after moisture balance) is reported as “Form A”. In addition, the “MB (moisture balance) result” value in series [1] (sorption/desorption 5% to 95% RH at 10% RH intervals) is reported as “non-hygroscopic”. Also, the VT-XRPD form in series [2] (40° C. (listed after 110° C.)) is listed as 40° C.: Form A; in series [2] (50° C.), 50° C.: Form A; in series [2] (75° C.), 75° C.: Form A; in series [2] (110° C.), 110° C.: Pattern D; in series [2] (ambient temp), “ambient temp: Form A”.

Source of the values: patent US20090163540A1, “Quinine Sulfate Polymorphs, Processes of Preparing, Compositions and Uses Thereof” (priority 2007, published 2009).
